Where only a bound is given, the exact number is not on record here.

Here are results for 24 molecules from patent US10689377B2 (Mirati Therapeutics, Inc., priority 2017, dated 2020).

In the experiment the target is KRas G12C (Homo sapiens, UniProt P01116, G12C). The experiment can be described thus: Cellular inhibition of KRas G12C measured by Phospho-ERK in NCI-H358 cells. In kind it is cell-based. Conditions: pERK(Thr202/Tyr204) normalized with GAPDH, NCI-H358 cells, 3 hours; read-out: IC50. The procedure, abridged: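 Following 8-12 h attachment, NCI-H358 cells got serially diluted compound (0.5% DMSO) for 3 hours. Cells were then fixed, permeabilized with cold methanol, and stained for pERK(Thr202/Tyr204) and GAPDH. Ratios were converted to percent of DMSO control, with IC50 obtained by four-parameter regression.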
Chain of KRas G12C (P01116 1-188 isoform P01116-2 G12C): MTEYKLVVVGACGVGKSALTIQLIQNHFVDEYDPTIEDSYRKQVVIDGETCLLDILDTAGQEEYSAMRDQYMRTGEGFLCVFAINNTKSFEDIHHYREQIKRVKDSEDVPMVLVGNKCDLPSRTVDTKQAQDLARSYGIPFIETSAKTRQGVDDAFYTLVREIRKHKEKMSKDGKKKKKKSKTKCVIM
Broadly, the IC50 is the concentration that gives 50% inhibition. For the molecule `C=CC(=O)N1CCN(c2nc(OC[C@@H]3CCCN3C)nc3c2CCN(c2c(O)cccc2F)C3)[C@@H](C)C1` [Example 321, 1-[(3S)-4-[7-(2-fluoro-6-hydroxy-phenyl)-2-[[(2S)-1-methylpyrrolidin-2-yl]methoxy]-6,8-dihydro-5H-pyrido[3,4-d]pyrimidin-4-yl]-3-methyl-piperazin-1-yl]prop-2-en-1-one], the IC50 is > 1000 nM.

With `C=CC(=O)N1CCN(c2nc(OC[C@@H]3CN(C)CCO3)nc3c2CCN(c2cccc4ccccc24)C3)CC1CC#N` (stereo partly drawn) [Example 271, 2-(1-acryloyl-4-(2-(((S)-4-methylmorpholin-2-yl)methoxy)-7-(naphthalen-1-yl)-5,6,7,8-tetrahydropyrido[3,4-d]pyrimidin-4-yl)piperazin-2-yl)acetonitrile], the IC50 is 0.1 to 1000 nM.

In the case of `C=CC(=O)N1CCN(c2nc(O[C@H](C)CN(C)C)nc3c2CCN(c2cc(OC(F)(F)F)ccc2O)C3)CC1` [Example 86, (R)-1-(4-(2-((1-(dimethylamino)propan-2-yl)oxy)-7-(2-hydroxy-5-(trifluoromethoxy)phenyl)-5,6,7,8-tetrahydropyrido[3,4-d]pyrimidin-4-yl)piperazin-1-yl)prop-2-en-1-one], the IC50 was > 1000 nM.

Take `C=CC(=O)N1CCN(c2nc(O[C@H](C)CN(C)C)nc3c2CCN(c2cc(O)c(Cl)c4ccccc24)C3)CC1` [Example 125, (R)-1-(4-(7-(4-chloro-3-hydroxynaphthalen-1-yl)-2-((1-(dimethylamino)propan-2-yl)oxy)-5,6,7,8-tetrahydropyrido[3,4-d]pyrimidin-4-yl)piperazin-1-yl)prop-2-en-1-one]: the IC50 was > 1000 nM.

On to `C=CC(=O)N1CCN(c2nc(OC[C@H]3CCN(C)C3)nc3c2CCN(c2cc(O)cc4ccccc24)C3)CC1` [Example 188, (S)-1-(4-(7-(3-hydroxynaphthalen-1-yl)-2-((1-methylpyrrolidin-3-yl)methoxy)-5,6,7,8-tetrahydropyrido[3,4-d]pyrimidin-4-yl)piperazin-1-yl)prop-2-en-1-one], for which the IC50 lay within 0.1 to 1000 nM.

`C=CC(=O)N1CCN(c2nc(O[C@H](C)CN3CC[C@@H](OC)C3)nc3c2CCN(c2cc(O)cc4ccccc24)C3)CC1` [Example 63, 1-(4-(7-(3-hydroxynaphthalen-1-yl)-2-(((R)-1-((R)-3-methoxypyrrolidin-1-yl)propan-2-yl)oxy)-5,6,7,8-tetrahydropyrido[3,4-d]pyrimidin-4-yl)piperazin-1-yl)prop-2-en-1-one]: the IC50 was > 1000 nM.

Regarding `C=CC(=O)N1CCN(c2nc(OC[C@H]3CN(C)C4(CC4)CO3)nc3c2CCN(c2cccc4ccccc24)C3)C[C@@H]1CC#N` [Example 448, 2-((S)-1-Acryloyl-4-(2-(((R)-4-methyl-7-oxa-4-azaspiro[2.5]octan-6-yl)methoxy)-7-(naphthalen-1-yl)-5,6,7,8-tetrahydropyrido[3,4-d]pyrimidin-4-yl)piperazin-2-yl)acetonitrile], the IC50 is 0.1 to 1000 nM.

For the molecule `C=CC(=O)N1CCN(c2nc(OCCN3CCC(C)CC3)nc3c2CCN(c2cc(O)cc4ccccc24)C3)CC1` [Example 92, 1-(4-(7-(3-hydroxynaphthalen-1-yl)-2-(2-(4-methylpiperidin-1-yl)ethoxy)-5,6,7,8-tetrahydropyrido[3,4-d]pyrimidin-4-yl)piperazin-1-yl)prop-2-en-1-one], the IC50 was in the range of 0.1 to 1000 nM.

`Cc1cccc2cccc(N3CCc4c(nc(OC[C@@H]5CCCN5C)nc4N4CCN(C(=O)/C=C/c5cnn(C)c5)[C@@H](CC#N)C4)C3)c12` [Example 494, 2-((S)-1-((E)-3-(1-methyl-1H-pyrazol-4-yl)acryloyl)-4-(7-(8-methylnaphthalen-1-yl)-2-(((S)-1-methylpyrrolidin-2-yl)methoxy)-5,6,7,8-tetrahydropyrido[3,4-d]pyrimidin-4-yl)piperazin-2-yl)acetonitrile]: the IC50 was > 1000 nM.

For `C=CC(=O)N1CCN(c2nc(OC[C@@H]3CCCN3C)nc3c2CCN(c2cncc(F)c2C(F)(F)F)C3)C[C@@H]1CC#N` [Example 383, 2-((S)-1-acryloyl-4-(7-(5-fluoro-4-(trifluoromethyl)pyridin-3-yl)-2-(((S)-1-methylpyrrolidin-2-yl)methoxy)-5,6,7,8-tetrahydropyrido[3,4-d]pyrimidin-4-yl)piperazin-2-yl)acetonitrile], the IC50 was in the range of 0.1 to 1000 nM.

Turning to `C=CC(=O)N1CCN(c2nc(OC[C@H]3CCCN3C)nc3c2CCN(c2c(C(F)(F)F)ccc4[nH]ncc24)C3)CC1CC#N` (stereo partly drawn) [Example 243, 2-[4-[2-[[(2R)-1-methylpyrrolidin-2-yl]methoxy]-7-[5-(trifluoromethyl)-1H-indazol-4-yl]-6,8-dihydro-5H-pyrido[3,4-d]pyrimidin-4-yl]-1-prop-2-enoyl-piperazin-2-yl]acetonitrile], the IC50 was 0.1 to 1000 nM.

Turning to `C=CC(=O)N1CCN(c2nc(OC[C@@H]3CCCN3C)nc3c2CCN(c2ccnc4ccccc24)C3)CC1CC#N` (stereo partly drawn) [Example 278, 2-(1-acryloyl-4-(2-(((S)-1-methylpyrrolidin-2-yl)methoxy)-7-(quinolin-4-yl)-5,6,7,8-tetrahydropyrido[3,4-d]pyrimidin-4-yl)piperazin-2-yl)acetonitrile], the IC50 lay in the range of 0.1 to 1000 nM.

`C=CC(=O)N1CCN(c2nc(OC[C@@H]3CCCN3CCOC)nc3c2CCN(c2cccc4ccccc24)C3)CC1CC#N` (stereo partly drawn) [Example 266, 2-(1-acryloyl-4-(2-(((S)-1-(2-methoxyethyl)pyrrolidin-2-yl)methoxy)-7-(naphthalen-1-yl)-5,6,7,8-tetrahydropyrido[3,4-d]pyrimidin-4-yl)piperazin-2-yl)acetonitrile]: the half-maximal inhibitory concentration (IC50) fell in the range of 0.1 to 1000 nM.

`CN1CC[C@@H](COc2nc3c(c(N4CCN(C(=O)/C=C/CF)[C@@H](CC#N)C4)n2)CCN(c2cccc4cccc(Cl)c24)C3)C1` [Example 584, 2-[(2S)-4-[7-(8-chloro-1-naphthyl)-2-[[(3R)-1-methylpyrrolidin-3-yl]methoxy]-6,8-dihydro-5H-pyrido[3,4-d]pyrimidin-4-yl]-1-[(E)-4-fluorobut-2-enoyl]piperazin-2-yl]acetonitrile]: the IC50 lay in the range of 0.1 to 1000 nM.

Consider `C=CC(=O)N1CCN(c2nc(OC[C@@H]3CCCN3C)nc3c2CCN(c2cccc4ccccc24)C3)C[C@H]1C` [Example 201, 1-((R)-2-methyl-4-(2-(((S)-1-methylpyrrolidin-2-yl)methoxy)-7-(naphthalen-1-yl)-5,6,7,8-tetrahydropyrido[3,4-d]pyrimidin-4-yl)piperazin-1-yl)prop-2-en-1-one], for which the half-maximal inhibitory concentration (IC50) was > 1000 nM.

As to `C=CC(=O)N1CCN(c2nc(OC[C@@H]3CCCN3C)nc3c2CCN(c2cccc4cccc(C(F)(F)F)c24)C3)C[C@@H]1CC#N` [Example 434, 2-((S)-1-acryloyl-4-(2-(((S)-1-methylpyrrolidin-2-yl)methoxy)-7-(8-(trifluoromethyl)naphthalen-1-yl)-5,6,7,8-tetrahydropyrido[3,4-d]pyrimidin-4-yl)piperazin-2-yl)acetonitrile], the half-inhibitory concentration (IC50) is 0.1 to 1000 nM.

Take `C=CC(=O)N1CCN(c2nc(OCCN(CC)CC)nc3c2CCN(c2ccccc2C(F)(F)F)C3)CC1CC#N` (stereo not drawn) [Example 300, 2-[4-[2-[2-(diethylamino)ethoxy]-7-[2-(trifluoromethyl)phenyl]-6,8-dihydro-5H-pyrido[3,4-d]pyrimidin-4-yl]-1-prop-2-enoyl-piperazin-2-yl]acetonitrile]: the IC50 fell in the range of 0.1 to 1000 nM.

`C=CC(=O)N1CCN(c2ncnc3c2CCN(c2nc(N)cc4ccccc24)C3)CC1` [Example 54, 1-[4-[7-(3-amino-1-isoquinolyl)-6,8-dihydro-5H-pyrido[3,4-d]pyrimidin-4-yl]piperazin-1-yl]prop-2-en-1-one]: the half-maximal inhibitory concentration (IC50) is > 1000 nM.

Turning to `C=CC(=O)N1CCN(c2nc(OC[C@@H]3CCCN3C)nc3c2CCN(c2ccccc2C(F)F)C3)CC1CC#N` (stereo partly drawn) [Example 449], the IC50 is 0.1 to 1000 nM.

With `C=CC(=O)N1CCN(c2nc(OC[C@@H]3CCN(C)C3)nc3c2CCN(c2cc(O)cc4ccccc24)C3)C[C@@H]1CC#N` [Example 350, 2-((S)-1-acryloyl-4-(7-(3-hydroxynaphthalen-1-yl)-2-(((R)-1-methylpyrrolidin-3-yl)methoxy)-5,6,7,8-tetrahydropyrido[3,4-d]pyrimidin-4-yl)piperazin-2-yl)acetonitrile], the IC50 was in the range of 0.1 to 1000 nM.

Turning to `C=CC(=O)N1CCN(c2nc(OCCN3CCCC[C@@H]3C)nc3c2CCN(c2cc(O)cc4ccccc24)C3)CC1` [Example 88, (S)-1-(4-(7-(3-hydroxynaphthalen-1-yl)-2-(2-(2-methylpiperidin-1-yl)ethoxy)-5,6,7,8-tetrahydropyrido[3,4-d]pyrimidin-4-yl)piperazin-1-yl)prop-2-en-1-one], the concentration for half-maximal inhibition (IC50) was in the range of 0.1 to 1000 nM.

As to `Cc1cccc2cccc(N3CCc4c(nc(OC[C@@H]5CC(F)(F)CN5C)nc4N4CCN(C(=O)/C=C/CF)[C@@H](CC#N)C4)C3)c12` [Example 601, 2-[(2S)-4-[2-[[(2S)-4,4-difluoro-1-methyl-pyrrolidin-2-yl]methoxy]-7-(8-methyl-1-naphthyl)-6,8-dihydro-5H-pyrido[3,4-d]pyrimidin-4-yl]-1-[(E)-4-fluorobut-2-enoyl]piperazin-2-yl]acetonitrile], the IC50 lay within 0.1 to 1000 nM.

On to `C=CC(=O)N1CCN(c2nc(OC[C@H]3COCCN3C)nc3c2CCN(c2cccc4ccccc24)C3)CC1CC#N` (stereo partly drawn) [Example 446, 2-(1-Acryloyl-4-(2-(((R)-4-methylmorpholin-3-yl)methoxy)-7-(naphthalen-1-yl)-5,6,7,8-tetrahydropyrido[3,4-d]pyrimidin-4-yl)piperazin-2-yl)acetonitrile], for which the IC50 is > 1000 nM.

For `C=CC(=O)N1CCN(c2nc(OCCCN3CCOCC3)nc3c2CCN(c2cccc4cccc(C)c24)C3)C[C@@H]1CC#N` [Example 370, (S)-2-(1-acryloyl-4-(7-(8-methylnaphthalen-1-yl)-2-(3-morpholinopropoxy)-5,6,7,8-tetrahydropyrido[3,4-d]pyrimidin-4-yl)piperazin-2-yl)acetonitrile], the IC50 was 0.1 to 1000 nM.
